In patent publication US9968582B2, “Use of a benzoate containing composition in urea cycle disorders and neurodegenerative disorders” (Rush University Medical Center, priority 2014, dated 2018):

What was measured:
encephalitogenic T cells = assay: Generation of encephalitogenic T cells in GTB-treated donor mice, adoptive transfer; format: in vivo; details: donor mice treated with GTB 50 mg/kg body wt/d orally from day of MBP immunization; vs untreated or vehicle-treated donors; FIG. 2
[1] = test system: dopamine (DA) in the striata; assay: MPTP mouse model of PD, HPLC of striatal dopamine; format: in vivo, mice; details: FIG. 10
Experimental: Six- to eight-week old C57BL/6 mice were purchased from Harlan (Indianapolis, Ind.). For acute MPTP intoxication, mice received four intraperitoneal (i.p.) injections of MPTP-HCl (18 mg/kg of free base; Sigma Chemical Co., St. Louis, Mo.) in saline at 2-h intervals. Control animals received only saline.
GTB was mixed in 0.5% methylcellulose (MC) and from 3 h after the last injection of MPTP, mice were gavaged 100 μL GTB-mixed MC once daily using gavage needle. Therefore, control MPTP mice received only MC as vehicle.
Striatal level of dopamine was quantified in Complete Stand-Alone HPLC-ECD System EiCOMHTEC-500 (JM Science Inc., Grand Island, N.Y.). Briefly, mice were sacrificed by cervical dislocation after 7 days of MPTP intoxication and their striata were collected and immediately frozen in dry ice and stored at −80° C. until analysis. On the day of the analysis, tissues were sonicated in 0.2M perchloric acid containing isoproterenol and resulting homogenates were centrifuged at 20,000×g for 15 min at 4 C. After pH adjustment and filtration, 10 μl of supernatant was injected onto an Eicompak SC-3ODS column (Complete Stand-Alone HPLC-ECD System EiCOMHTEC-500 from JM Science Inc., Grand Island, N.Y.) and analyzed following the manufacturer's protocol.
Next, to determine whether GTB protects against biochemical deficits caused by MPTP, the inventor quantified levels of dopamine (DA) in the striata 7 days after the MPTP treatment. As evident from FIG. 10, MPTP intoxication led to about 75% decrease in striatal DA compared to striata of saline-injected control mice.

TGF-β = TGF-β ELISA in serum of EAE mice; format: in vivo; details: GTB from 8 dpt, sacrificed 16 dpt; FIG. 6
Text: Production of TGF-β in culture supernatant was monitored by ELISA using assay kit from eBioscience (San Diego, Calif.).
Because TGF-β is known to protect mice from EAE, the inventor examined the level of TGF-β in serum of GTB-treated and untreated EAE mice by ELISA. EAE mice receiving GTB or vehicle from 8 dpt were sacrificed on 16 dpt followed by analysis of TGF-β in serum. The inventor observed marked decrease in TGF-β in the serum of EAE mice as compared to control mice (FIG. 6).

[2] = test system: myelin basic protein (MBP); assay: Myelin gene mRNA expression in spinal cord of EAE mice: MBP; format: in vivo; details: FIG. 5C-E
Experimental: Total RNA was isolated from splenic T cells and spinal cord by using the RNeasy mini kit (Qiagen, Valencia, Calif.) and from spleen and cerebellum by using the Ultraspec-II RNA reagent (Biotecx laboratories, Inc, Houston, Tex.) following manufacturer's protocol. To remove any contaminating genomic DNA, total RNA was digested with DNase. Semi-quantitative RT-PCR was carried out using a RT-PCR kit from Clonetech (Mountain View, Calif.). Briefly, 1 μg of total RNA was reverse transcribed using oligo(dT)12-18 as primer and MMLV reverse transcriptase (Clontech) in a 20 μL reaction mixture. […]
The relative expression of each gene with respect to GAPDH was measured after scanning the bands with a Fluor Chem 8800 Imaging System (Alpha Innotech, San Leandro, Calif.).
Real-time PCR analysis was performed using the ABI-Prism7700 sequence detection system (Applied Biosystems, Foster City, Calif.). […] Data were processed by the ABI Sequence Detection System 1.6 software and analyzed by ANOVA.
Demyelination is the most important pathological feature in MS, which is also modeled in EAE animals. […] To confirm this finding, the inventor monitored the expression of […] myelin genes, myelin basic protein (MBP) and proteolipid protein (PLP), and observed a marked loss of mRNA expression of these genes in the spinal cord of untreated EAE mice compared to control mice (FIG. 5C-E).

spinal cord of EAE mice = assay: H&E histology, infiltration of inflammatory cells and cuffed vessels in spinal cord of EAE mice; format: in vivo; details: GTB from 8 dpt, sacrificed 16 dpt
Text: On 14 dpi (first chronic phase), five mice from each of the following groups (control, EAE, EAE+GTB, and EAE+vehicle) were anesthetized. After perfusion with phosphate buffered saline (PBS) (pH 7.4) and then with 4% (w/v) paraformaldehyde solution in PBS, cerebellum and whole spinal cord was dissected out from each mouse. The tissues were further fixed and then divided into halves: one-half was used for histological staining whereas the other half was used for myelin staining. For histological analysis, routine histology was performed to obtain perivascular cuffing and morphological details of CNS tissues of EAE mice. Paraformaldehyde-fixed tissues were embedded in paraffin, and serial sections (4 μm) were cut. Sections were stained with conventional H&E staining method. Digital images were collected under bright-field setting using an ×40 objective. Slides were assessed in a blinded fashion by three examiners for inflammation in different anatomical compartments (meninges and parenchyma). Inflammation was scored using the following scale as described: for meninges and parenchyma: 0, no infiltrating cells; 1, few infiltrating cells; 2, numerous infiltrating cells; and 3, widespread infiltration. For vessels: 0, no cuffed vessel; 1, one or two cuffed vessels per section; 2, three to five cuffed vessels per section and 3, more than five cuffed vessels per section. At least six serial sections of each spinal cord from each of five mice per group were scored and statistically analyzed by ANOVA.
Infiltration of autoreactive T cells and associated mononuclear cells is a hallmark of EAE as well as MS. The inventor examined whether GTB treatment attenuated infiltration and inflammation in adoptively-transferred EAE mice. Mice receiving GTB from 8 dpt (onset of the acute phase) were sacrificed on 16 dpt. […] In contrast, vehicle was unable to inhibit the infiltration of inflammatory cells (FIG. 4A).

[3] = Observation of drug related side effects in mice; format: in vivo; details: any of the mice used during the course of the study

## O=C(OCC(COC(=O)c1ccccc1)OC(=O)c1ccccc1)c1ccccc1 [GTB, glyceryl tribenzoate]
Encephalitogenic T cells
  clinical symptoms and disease severity of recipient mice: significantly reduced clinical symptoms and disease severity
[1]; GTB 50 mg/kg body wt/d in MPTP-intoxicated mice, MPTP alone about 75% decrease
  decrease in striatal dopamine: 25%
[1]; GTB in MPTP-intoxicated mice, 7 days after MPTP
  dopamine in the striatum: dose-dependently protected dopamine
TGF-β
  TGF-β in serum: protected TGF-β
[2]
  MBP mRNA expression in the spinal cord: significant restoration of myelin gene mRNA expression
Spinal cord of EAE mice; FIG. 4A
  infiltration of inflammatory cells into the spinal cord (H&E): markedly inhibited the infiltration of inflammatory cells
Spinal cord of EAE mice; FIG. 4B
  quantitation of infiltration: dramatically reduced infiltration
Spinal cord of EAE mice; FIG. 4C
  appearance of cuffed vessels: dramatically reduced
[3]
  drug related side effect (e.g. hair loss, weight loss, untoward infection): did not notice any drug related side effect
